The record followed here is patent US11266643B2, “Triaryl compounds for treatment of PD-L1 diseases” (CHEMOCENTRYX, INC., priority 2019, dated 2022).

A value given as a limit tells only on which side of the number the result lay.

human PD-L1, sequence (Q9NZQ7 19-239): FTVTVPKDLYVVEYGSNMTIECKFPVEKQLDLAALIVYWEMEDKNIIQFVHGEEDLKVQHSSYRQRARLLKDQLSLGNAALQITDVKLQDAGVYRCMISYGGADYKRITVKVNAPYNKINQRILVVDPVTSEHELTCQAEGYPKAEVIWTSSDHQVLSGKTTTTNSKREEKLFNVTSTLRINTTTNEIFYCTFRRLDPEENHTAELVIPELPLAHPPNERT

The target in this assay is human PD-L1 (Homo sapiens (Human), UniProt Q9NZQ7). Nature of the assay: Enzyme-Linked Immunosorbent Assay (ELISA), PD-1/PD-L1 binding. The following applies: PD-1/PD-L1 ELISA, human PD-L1 coated plates, Table 1. The method, boiled down:
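Plates coated with […] human PD-L1 overnight at 4° C, blocked, then 1:5 serial compound dilutions added with human PD-1 […] 0.31 μg/mL for 1 h at 37° C. Bound PD-1 detected with streptavidin-HRP and TMB (20 min, 37° C); absorbance read at 450 nm after H2SO4 stop.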
Background: ELISA stands for enzyme-linked immunosorbent assay.
On to `COc1cc(-c2cccc(-c3cccc(NC(=O)c4c[nH]c(=O)n(C)c4=O)c3C)c2C)cc(F)c1CN1CC(O)C1` [Example 1.271], for which the IC50 (as a rule, the concentration needed to halve the response being measured) was less than 10 nM.

The compound `COc1cc(-c2cccc(-c3cccc(NC(=O)c4cnc(C)[nH]c4=O)c3C)c2C)cc(F)c1CN1CC(C(=O)O)C1` [Example 1.272] displayed an IC50 of 10 to 1000 nM.

As for `COc1cc(-c2cccc(-c3cccc(Nc4nccc5nccnc45)c3C)c2C)cc(F)c1CN1CC(C(=O)O)C1` [Example 1.273], the half-maximal inhibitory concentration (IC50) was less than 10 nM.

The compound `COc1cc(-c2cccc(-c3cccc(NC(=O)c4c(C)cc(C)n(C)c4=O)c3C)c2C)cc(F)c1CN1CC(C(=O)O)C1` [Example 1.275] registered an IC50 of 10 to 1000 nM.

`COc1cc(-c2cccc(-c3cccc(NC(=O)c4cccn(CCO)c4=O)c3C)c2C)cc(F)c1CN1CC(C(=O)O)C1` [Example 1.277]: the half-inhibitory concentration (IC50) is less than 10 nM.

For `COc1cc(-c2cccc(-c3cccc(Nc4nccc5ccn(C)c(=O)c45)c3C)c2C)cc(F)c1CN1CC(C(=O)O)C1` [Example 1.278], the IC50 was less than 10 nM.

`COc1cc(-c2cccc(-c3cccc(NC(=O)c4cccn(C)c4=O)c3C)c2C)cc(F)c1CNCCCC(=O)O` [Example 1.279] displayed an IC50 of less than 10 nM.

In the case of `COc1cc(-c2cccc(-c3cccc(NC(=O)c4cccn(C)c4=O)c3C)c2C)cc(F)c1CNCCS(=O)(=O)O` [Example 1.280], the 50% inhibitory concentration (IC50) is less than 10 nM.

In turn, `COc1cc(-c2cccc(-c3cccc(NC(=O)c4cccn(C)c4=O)c3C)c2C)cc(F)c1CNCC(C)(C)O` [Example 1.281] gave an IC50 of less than 10 nM.

`COc1cc(-c2cccc(-c3cccc(NC(=O)c4cccn(C)c4=O)c3C)c2C)cc(F)c1CNCCC(=O)O` [Example 1.282] gave an IC50 of less than 10 nM.

In the case of `COc1cc(-c2cccc(-c3cccc(NC(=O)c4c[nH]c(=O)n(C)c4=O)c3C)c2C)cc(F)c1CN1CC(C(=O)O)C1` [Example 1.283], the IC50 is less than 10 nM.

The compound `COc1cc(-c2cccc(-c3cccc(Nc4cccc5ccn(C)c(=O)c45)c3C)c2C)cc(F)c1CN1CC(C(=O)O)C1` [Example 1.284] displayed a half-maximal inhibitory concentration (IC50) of 10 to 1000 nM.

For the compound `COc1cc(-c2cccc(-c3cccc(NC(=O)c4ccc(C(=O)NCCO)cn4)c3C)c2C)cc(F)c1CN1CC(C(=O)O)C1` [Example 1.285], the IC50 is less than 10 nM.

As for `COc1cc(-c2cccc(-c3cccc(Nc4cccc5ncn(C)c(=O)c45)c3C)c2C)cc(F)c1CN1CC(C(=O)O)C1` [Example 1.287], the 50% inhibitory concentration (IC50) is less than 10 nM.

The compound `COc1cc(-c2cccc(-c3cccc(NC(=O)c4cccn(CC(N)=O)c4=O)c3C)c2C)cc(F)c1CN` [Example 1.288] registered an IC50 of 10 to 1000 nM.

`COc1cc(-c2cccc(-c3cccc(NC(=O)c4cccn(C)c4=O)c3C)c2C)cc(F)c1CN[C@@](C)(CO)C(=O)O` [Example 1.289] yielded a half-inhibitory concentration (IC50) of 10 to 1000 nM.

`COc1cc(-c2cccc(-c3cccc(NC(=O)c4cccn(C)c4=O)c3C)c2C)cc(F)c1CNCC(=O)O` [Example 1.290] returned an IC50 of less than 10 nM.

Compound `COc1cc(-c2cccc(-c3cccc(NC(=O)c4cccn(CC(=O)O)c4=O)c3C)c2C)cc(F)c1CN` [Example 1.291] displayed an IC50 of 1000 to 10000 nM.

`COc1cc(-c2cccc(-c3cccc(NC(=O)c4ccc(OCC(N)=O)cn4)c3C)c2C)cc(F)c1CN` [Example 1.296] returned an IC50 of less than 10 nM.

`COc1cc(-c2cccc(-c3cccc(NC(=O)c4cccnc4O)c3C)c2C)cc(F)c1CN` [Example 1.297] came in with an IC50 of 10 to 1000 nM.

For `COc1cc(-c2cccc(-c3cccc(NC(=O)c4ncc(C(N)=O)cn4)c3C)c2C)cc(F)c1CN` [Example 1.299], the 50% inhibitory concentration (IC50) was less than 10 nM.

`COc1cc(-c2cccc(-c3cccc(NC(=O)c4cccn(C)c4=O)c3C)c2C)cc(F)c1CNCCO` [Example 1.300] returned an IC50 of less than 10 nM.

`COc1cc(-c2cccc(-c3cccc(NC(=O)c4cccn(C)c4=O)c3C)c2C)cc(F)c1CN1CC(C(=O)O)C1` [Example 1.301] returned a concentration for half-maximal inhibition (IC50) of less than 10 nM.

Compound `COc1cc(-c2cccc(-c3cccc(NC(=O)c4cc(C(=O)O)[nH]n4)c3C)c2C)cc(F)c1CN` [Example 1.304] displayed an IC50 of 1000 to 10000 nM.

For the compound `COc1cc(-c2cccc(-c3cccc(NC(=O)c4ccc(C(=O)NCC(=O)O)cn4)c3C)c2C)cc(F)c1CN` [Example 1.305], the IC50 was less than 10 nM.

For the compound `COc1cc(-c2cccc(-c3cccc(NC(=O)c4ccc(C(=O)N(C)C)cn4)c3C)c2C)cc(F)c1CN` [Example 1.306], the IC50 is less than 10 nM.

`COc1cc(-c2cccc(-c3cccc(NC(=O)c4cnc(CC(N)=O)cn4)c3C)c2C)cc(F)c1CN` [Example 1.307]: the IC50 is less than 10 nM.

Regarding `COc1cc(-c2cccc(-c3cccc(NC(=O)c4cnc(CC(=O)O)cn4)c3C)c2C)cc(F)c1CN` [Example 1.309], the concentration for half-maximal inhibition (IC50) is less than 10 nM.

The compound `COc1cc(-c2cccc(-c3cccc(NC(=O)c4ccc(CC(N)=O)cn4)c3C)c2C)cc(F)c1CN` [Example 1.310] yielded an IC50 of less than 10 nM.

In the case of `COc1cc(-c2cccc(-c3cccc(NC(=O)c4cccn(C)c4=O)c3C)c2C)cc(F)c1CN` [Example 1.311], the 50% inhibitory concentration (IC50) is less than 10 nM.

Take `COc1cc(-c2cccc(-c3cccc(NC(=O)C4CN(CC(=O)O)CCO4)c3C)c2C)cc(F)c1CN` (stereo not shown) [Example 1.314]: the half-maximal inhibitory concentration (IC50) is 10 to 1000 nM.

For the compound `COc1cc(-c2cccc(-c3cccc(NC(=O)C4CN(C)CCO4)c3C)c2C)cc(F)c1CN` (stereo not shown) [Example 1.315], the 50% inhibitory concentration (IC50) is 10 to 1000 nM.

As for `COc1cc(-c2cccc(-c3cccc(Nc4nccc5cccnc45)c3C)c2C)cc(F)c1CN1CC(C(=O)O)C1` [Example 1.318], the IC50 fell in the range of 10 to 1000 nM.

For `COc1cc(-c2cccc(-c3cccc(NC(=O)[C@H]4COCCN4)c3C)c2C)cc(F)c1CN` [Example 1.319], the IC50 is 10 to 1000 nM.

`COc1cc(-c2cccc(-c3cccc(NC(=O)c4cc(N)ncn4)c3C)c2C)cc(F)c1CN1CC(C(=O)O)C1` [Example 1.320] came in with an IC50 of less than 10 nM.

The compound `COc1cc(-c2cccc(-c3cccc(NC(=O)c4ccnc(C)n4)c3C)c2C)cc(F)c1CN1CC(C(=O)O)C1` [Example 1.321] displayed a concentration for half-maximal inhibition (IC50) of less than 10 nM.

The compound `COc1cc(-c2cccc(-c3cccc(NC(=O)c4cnc(C(=O)O)cn4)c3C)c2C)cc(F)c1CN` [Example 1.322] displayed a half-inhibitory concentration (IC50) of less than 10 nM.

The compound `COc1cc(-c2cccc(-c3cccc(NC(=O)C4CNCCO4)c3C)c2C)cc(F)c1CN` (stereo not shown) [Example 1.323] displayed an IC50 of 10 to 1000 nM.

For `COc1cc(-c2cccc(-c3cccc(NC(=O)C4CNCCO4)c3C)c2C)cc(F)c1CNCCO` (stereo not shown) [Example 1.324], the IC50 lay in the range of 10 to 1000 nM.

Regarding `COc1cc(-c2cccc(-c3cccc(NC(=O)c4cnc(CO)cn4)c3C)c2C)cc(F)c1CN1CC(C(=O)O)C1` [Example 1.326], the IC50 was less than 10 nM.

`COc1cc(-c2cccc(-c3cccc(NC(=O)c4cncc(N)n4)c3C)c2C)cc(F)c1CN1CC(C(=O)O)C1` [Example 1.327] gave a half-maximal inhibitory concentration (IC50) of less than 10 nM.

In turn, `COC(=O)Cc1ccc(C(=O)Nc2cccc(-c3cccc(-c4cc(F)c(CN)c(OC)c4)c3C)c2C)nc1` [Example 1.331] registered an IC50 of less than 10 nM.

In the case of `COc1cc(-c2cccc(-c3cccc(NC(=O)c4cnc(N)cn4)c3C)c2C)cc(F)c1CN1CC(C(=O)O)C1` [Example 1.332], the IC50 is less than 10 nM.

Regarding `COc1cc(-c2cccc(-c3cccc(NC(=O)c4ccc(C(=O)O)cn4)c3C)c2C)cc(F)c1CNCCO` [Example 1.333], the half-maximal inhibitory concentration (IC50) was in the range of 10 to 1000 nM.

Consider `COC(=O)c1ccc(C(=O)Nc2cccc(-c3cccc(-c4cc(F)c(CNCCO)c(OC)c4)c3C)c2C)nc1` [Example 1.334], for which the IC50 fell in the range of 10 to 1000 nM.

`COc1cc(-c2cccc(-c3cccc(NC(=O)c4ccc(CC(=O)O)cn4)c3C)c2C)cc(F)c1CN` [Example 1.335] had a half-inhibitory concentration (IC50) of 10 to 1000 nM.

As to `COc1cc(-c2cccc(-c3cccc(NC(=O)C4CCCO4)c3C)c2C)cc(F)c1CN[C@@](C)(CO)C(=O)O` (stereo partly shown) [Example 1.336], the IC50 was 1000 to 10000 nM.

As to `COc1cc(-c2cccc(-c3cccc(NC(=O)c4ccncn4)c3C)c2C)cc(F)c1CN1CC(O)C1` [Example 1.337], the half-inhibitory concentration (IC50) was less than 10 nM.

`COc1cc(-c2cccc(-c3cccc(NC(=O)c4ccncn4)c3C)c2C)cc(F)c1CNCCO` [Example 1.338] registered an IC50 of less than 10 nM.

`COc1cc(-c2cccc(-c3cccc(NC(=O)c4ccncn4)c3C)c2C)cc(F)c1CNCC(=O)O` [Example 1.339] gave a half-maximal inhibitory concentration (IC50) of 10 to 1000 nM.

Turning to `COc1cc(-c2cccc(-c3cccc(NC(=O)c4ccncn4)c3C)c2C)cc(F)c1CN1CC(C)(C(=O)O)C1` [Example 1.340], the IC50 was less than 10 nM.

Turning to `COc1cc(-c2cccc(-c3cccc(NC(=O)C4CCCO4)c3C)c2C)cc(F)c1CN1CC(C(=O)O)C1` (stereo not shown) [Example 1.341], the concentration for half-maximal inhibition (IC50) lay in the range of 10 to 1000 nM.

Consider `COc1cc(-c2cccc(-c3cccc(NC(=O)c4ccc(CO)cn4)c3C)c2C)cc(F)c1CN1CC(C(=O)O)C1` [Example 1.342], for which the 50% inhibitory concentration (IC50) is less than 10 nM.

Take `COc1cc(-c2cccc(-c3cccc(NC(=O)c4ccccn4)c3C)c2C)cc(F)c1C(C)N` (stereo not shown) [Example 1.344]: the IC50 fell in the range of 10 to 1000 nM.

`COc1cc(-c2cccc(-c3cccc(NC(=O)c4ccncn4)c3C)c2C)cc(F)c1CNCCCC(=O)O` [Example 1.345] gave a concentration for half-maximal inhibition (IC50) of less than 10 nM.

For the compound `COc1cc(-c2cccc(-c3cccc(NC(=O)c4nccs4)c3C)c2C)cc(F)c1CN1CC(C(=O)O)C1` [Example 1.346], the IC50 was 10 to 1000 nM.

For `COc1cc(-c2cccc(-c3cccc(NC(=O)c4ccnc(N)n4)c3C)c2C)cc(F)c1CN1CC(C(=O)O)C1` [Example 1.347], the 50% inhibitory concentration (IC50) is 10 to 1000 nM.

`COc1cc(-c2cccc(-c3cccc(NC(=O)c4ccccn4)c3C)c2F)cc(F)c1CN1CC(C(=O)O)C1` [Example 1.348] registered a 50% inhibitory concentration (IC50) of 10 to 1000 nM.

In the case of `COc1cc(-c2cccc(-c3cccc(NC(=O)c4ncco4)c3C)c2C)cc(F)c1CN1CC(C(=O)O)C1` [Example 1.349], the IC50 lay within 10 to 1000 nM.

Turning to `COc1cc(-c2cccc(-c3cccc(NC(=O)C4CCCCN4)c3C)c2C)cc(F)c1CN1CC(C(=O)O)C1` (stereo not shown) [Example 1.350], the concentration for half-maximal inhibition (IC50) was 1000 to 10000 nM.

In the case of `COc1ccc(C(=O)Nc2cccc(-c3cccc(-c4cc(F)c(CN5CC(C(=O)O)C5)c(OC)c4)c3C)c2C)nc1` [Example 1.351], the half-maximal inhibitory concentration (IC50) is less than 10 nM.
